Experimental data reported in US11076597B2, “High stress resistant plant growth regulator and preparation method and use thereof” (SHANGHAI INSTITUTES FOR BIOLOGICAL SCIENCES, CHINESE …, priority 2015, dated 2021).
Entries after “also recorded” stand apart in the source; their conditions may differ. Read-outs that look alike come from different tables or passages of the source.

Columns and labels:
[1] = tested on: Arabidopsis aba2-1; assay: Leaf transpiration experiment (leaf temperature by thermal imager), Arabidopsis; type: in vivo, Arabidopsis thaliana; conditions: for duration of the leaf temperature increase: FIG. 4a, 4c; for inhibitory effect on leaf transpiration compared with ABA: Arabidopsis aba2-1, spray
Description: ABA synthesis mutant aba2-1 was used in Arabidopsis leaf transpiration experiment. […] Therefore, this mutant is used to exclude the effect of endogenous ABA on the transpiration experiment. The plants were sprayed with a solution containing 0.05% tween-20 and corresponding concentrations of (+)-ABA/0224/0304/0706/0715/0428 or 0.05% Tween-20 and 0.05% DMSO (control) after three weeks of continuous watering with an amount of 1.2 ml/pot. Leaf transpiration experiments of soybeans were conducted at 26° C. with long-day lighting and soybeans were sprayed with a solution containing 0.1% tween-20 and 20 μM (+)-ABA/0224/0304 compound or 0.1% Tween-20 and 0.05% DMSO (control) 14 days after sowing with an amount of 4 ml/pot; the leaf transpiration experiments of cottons were sprayed with a solution containing 0.1% tween-20 and 20 μM (+)-ABA/0224 compound or 0.1% Tween-20 and 0.05% DMSO, respectively, 25 days after sowing with an amount of 4 ml/pot; the leaf transpiration experiments of wheats were sprayed with a solution containing 0.1% tween-20 and 100 μM (+)-ABA/0224 compound or 0.1% Tween-20 and 0.05% DMSO (control) 18 days after sowing with an amount of 6 ml/pot. Images were taken daily using the FLIR A655sc thermal imager at the same time before and after spraying.
In this experiment, the temperature change of leaf surface was observed and recorded by an infrared camera, thus reflecting the strength of plant transpiration. The stronger the transpiration, the lower the leaf temperature.

[2] = biological target: T1, PYL2 receptor-HAB1 protein phosphatase complex (Arabidopsis thaliana, UniProt O80992); assay: AlphaScreen assay: promotion of PYL2 receptor binding to PP2C protein phosphatase HAB1; conditions: 6×His-SUMO-tagged PYL2 (aa 14-188), Biotin-tagged HAB1 (aa 172-511), 100 nM each, pH 7.4, 1.5 h room temperature
T1 construct: made in house; host or cells: E. coli BL21 (DE3)
T1 sequence (O80992 14-188): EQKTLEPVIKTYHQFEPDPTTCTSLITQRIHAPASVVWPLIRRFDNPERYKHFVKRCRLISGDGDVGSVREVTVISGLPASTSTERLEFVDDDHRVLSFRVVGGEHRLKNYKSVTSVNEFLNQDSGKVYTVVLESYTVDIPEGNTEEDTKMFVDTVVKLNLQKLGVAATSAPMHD
T1 sequence (Q9CAJ0 172-511 partner limits assumed): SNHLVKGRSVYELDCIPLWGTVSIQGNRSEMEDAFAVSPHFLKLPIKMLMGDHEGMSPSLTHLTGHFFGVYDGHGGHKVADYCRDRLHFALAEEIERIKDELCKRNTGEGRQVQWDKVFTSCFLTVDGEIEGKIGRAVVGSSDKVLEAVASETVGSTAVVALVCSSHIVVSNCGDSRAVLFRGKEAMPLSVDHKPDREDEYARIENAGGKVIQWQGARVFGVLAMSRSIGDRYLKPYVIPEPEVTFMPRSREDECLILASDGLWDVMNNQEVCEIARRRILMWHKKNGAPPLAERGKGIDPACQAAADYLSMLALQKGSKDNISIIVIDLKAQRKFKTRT
Description: The construction method of recombinant plasmids for the Arabidopsis thaliana genes PYL1 (amino acid sequence 36-211), PYL2 (amino acid sequence 14-188) with dual tags of 6×His and SUMO sequence and the Arabidopsis thaliana gene HAB1 (amino acid sequence 172-511) with the Biotin tag sequence is described in detail in “A gate-latch-lock mechanism for hormone signaling by abscisic acid receptors” (Nature, Vol 462, 2009). The construction method of recombinant plasmids for PYR1 and PYL7 (whole gene coding sequence) and Soybean GmPYL6 and rice OsPYL2 with dual tags of 6×His and SUMO sequence is the same as that for Arabidopsis PYL2.
The above recombinant plasmid is transformed into competent cell of E. coli BL21 (DE3) (purchased from NEB company), and inoculated into 200 ml of LB liquid medium containing Amp resistance (purchased from OXOID company) and cultured overnight at 37° C. at 200 rpm; and inoculated into 2 L of LB liquid medium containing Amp resistance at a ratio of 1:50-1:100 for an extended culture, and cultured at 37° C., 200 rpm for 3-4 hours, and at a low temperature of 16° C. until OD600 is about 0.8-1.0. Recombinant plasmids for PYR1/PYL1/PYL2/PYL7/GmPYL6/OsPYL2 with dual tags of 6×His and SUMO sequence were induced overnight with 100 μM of IPTG while HAB1 recombinant plasmid with the Biotin tag sequence was induced simultaneously with 100 μM of IPTG and 40 μM of biotin.
After 16 hours of induction, the bacterial solution was centrifuged at 4000 rpm for 20 minutes at 4° C. in a low-speed high-capacity centrifuge, and the bacteria cells were collected. Bacteria cells were resuspended in 50 ml of extraction buffer (containing 20 mM Tris, pH 8.0, 200 mM NaCl and 10% (v/v) glycerol) for per 2 L of bacterial solution and then subjected to pressure-breaking at […] and 4° C. for 3-5 times. The broken cells were subjected to ultracentrifugation, centrifuged at 16000 rpm for 30 minutes, and this process was repeated twice. The supernatant was collected and subjected to an affinity chromatography column.
For PYR/PYL proteins with dual tags of 6×His and SUMO sequences, 50 ml of affinity chromatography Ni column (50 ml Ni-NTA column, available from GE) was used. Firstly, the column was equilibrated with 600 ml of 10% buffer B (containing 20 mM Tris, PH 8.0, 200 mM NaCl, 500 mM imidazole and 10% glycerol), and then eluted with 200 ml of 50% buffer B and finally eluted with 100 ml of 100% buffer B. Proteins for crystal analysis were mixed with ulp1 enzyme at a molar ratio of 1000:1 for enzymatic dialysis overnight. The digested proteins were subjected to affinity chromatography on a Ni column once more. The collected solution was subjected to a HiLoad 26/60 Superdex200 gel filtration column (commercially available from GE) and eluted with an elution solution (containing 25 mM Tris, pH 8.0, 200 mM ammonium acetate, 1 mM dithiotreitol and 1 mM EDTA) to further separate and purify the protein.
For a HAB1 protein with a Biotin tag sequence, it was subjected to a 50 ml MBP affinity column (available from GE). The column was firstly equilibrated with 600 ml of 10% buffer C (containing 20 mM Tris, pH 8.0, 200 mM NaCl, 10 mM Maltose and 10% Glycerol), and eluted with 200 ml of 50% buffer C and finally eluted with 100 ml of 100% buffer C. The collection solution was subjected to a HiLoad 26/60 Superdex200 gel filtration column and eluted with an elution solution (containing 20 mM Tris, pH 8.0, 200 mM NaCl and 10% Glycerol) to further separate and purify the protein. […]

[3] = 5 μM spray, after spraying, FIG. 4a-4c
[4] = 5 μM spray, four days after spraying

SMILES	leaf temperature versus DMSO control (leaf transpiration) [1, 3]	leaf temperature versus DMSO control (leaf transpiration) [1, 4]	duration of the leaf temperature increase ([1]; 5 μM spray)	inhibitory effect on leaf transpiration compared with ABA [1]	EC50 ([2]; FIG. 2c, read-out: EC50)	EC50 ([2]; FIG. 2e, read-out: EC50)	also measured
CC1=CC(=O)CC(C)(C)[C@@]1(O)/C=C/C(C)=C\C(=O)O [ABA, Abscisic Acid, reference compound]	significantly increased compared to that with control (DMSO) treatment; also recorded: the leaf temperature was higher than that in the DMSO control group	had dropped to the level before spraying	–	–	–	–	EC50 ([2]; EC50, FIG. 2c): 866 nM; EC50 ([2]; EC50, FIG. 2e): 4960 nM; EC50 ([2]; EC50, FIG. 2f): 148 nM; EC50 ([2]; EC50, FIG. 2g): 3570 nM
CCCN1C(=O)OC(C)c2cc(NS(=O)(=O)Cc3c(F)c(F)c(C)c(F)c3F)ccc21 (stereo not shown) [Compound 0224]	significantly increased compared to that with control (DMSO) treatment; also recorded: the leaf temperature was higher than that in the DMSO control group	still significantly higher than that in the DMSO control	longer	better than that of ABA	29.6 nM	92.1 nM	leaf temperature versus DMSO control (leaf transpiration) ([1]; 2 μM or 1 μM spray, four days after spraying, FIG. 4b): still significantly increased compared to that with control (DMSO) treatment; also recorded: still significantly higher than that in the DMSO control
CCCN1C(=O)OC(C)(C)c2cc(NS(=O)(=O)Cc3c(F)c(F)c(C)c(F)c3F)ccc21 [Compound 0304]	significantly increased compared to that with control (DMSO) treatment; also recorded: the leaf temperature was higher than that in the DMSO control group	still significantly higher than that in the DMSO control	–	better than that of ABA	59.3 nM	–	–
CCCN1C(=O)OCc2cc(NS(=O)(=O)Cc3c(F)c(F)c(C)c(F)c3F)ccc21 [Compound 0428]	–	–	–	–	–	–	leaf temperature versus DMSO control (leaf transpiration) ([1]; 5 μM/2 μM/1 μM, treated for one day, FIG. 4d): significantly increased compared to that with DMSO treatment; also recorded: higher than that in the DMSO control group; EC50 ([2]; FIG. 2f, read-out: EC50): 19.3 nM
CCN1C(=O)OC(C)c2cc(NS(=O)(=O)Cc3c(F)c(F)c(C)c(F)c3F)ccc21 (stereo not shown) [Compound 0706]	significantly increased compared to that with control (DMSO) treatment; also recorded: significantly increased compared to the control (DMSO) treatment	–	equivalent to that of 0224	–	–	101 nM	–
Cc1c(F)c(F)c(CS(=O)(=O)Nc2ccc3c(c2)C(C)OC(=O)N3CCCF)c(F)c1F (stereo not shown) [Compound 0715]	significantly increased compared to that with control (DMSO) treatment; also recorded: significantly increased compared to the control (DMSO) treatment	–	equivalent to that of 0224	–	–	99.5 nM	–
